Test results reported in patent publication US20060110481A1, “COMPOSITIONS CONTAINING VITEX AGNUS-CASTUS BERRY OIL FOR COSMECEUTICAL APPLICATIONS AND METHOD OF ISOLATION OF THE ACTIVE COMPONENT” (SAMI LABS LIMITED, priority 2004, published 2006).

Assays:
Assay type in all cases: cell-based
[1] = test system: Propionibacterium acnes ATCC 11827; test: Direct bioautography on thin layer chromatograms; details: TLC bioautography, P. acnes
Method: The antibacterial effects of aqueous, methanolic Vitex agnus castus fruit extract and various extract fractions of different polarities were evaluated by bioautography technique. […] Further fractionation of oil has been done by Silica gel chromatography. Silica gel was been loaded more than half quantity of oil and fraction was collected from mobile phase, hexane, chloroform, 50% chloroform, chloroform, 10% methanol, 50% Methanol and Methanol alone. Active fraction was identified by bioautography technique.
Direct bioautography is the technique used to localize antibacterial activity on a chromatogram. (Lund et al. 1975)
In the present study, the separated fractions of Vitex oil were subjected to Thin Layer Chromatography on silica gel. The solvent system used was hexane: chloroform in 7:3 proportion [FIG. 1]. These chromatograms were dried in the oven at 60° C. for 1 hour to eliminate the traces of solvents. This can be visualized either by spraying the thin layer chromatogram with 5% methanolic sulphuric acid followed by heat drying or under UV light. The plates were taken to the anaerobic chamber where the bioautography experiment was carried out. The medium used was reinforced clostridial agar medium. […]
After incubation, 1-1.2 ml of tetrazolium salt solution [2% concentration] was sprayed as a coloring reagent on the plates. […] The diameter of the zones were measured and expressed in mm.

[2] = test system: E. coli; test: Disc diffusion antimicrobial study against E. coli
Method: (§1) Procedure: Medium used for this study was reinforced clostridial Agar (RCA). The medium which was prepared and sterilized in 30 ml vials was poured into the plates inside the chamber and allowed to solidity. The culture was inoculated [0.3 ml/plate] into the plates and spread. After 30 minutes, antibacterial sterile discs [6 mm] were dispensed (2/plate), and 2.5, 5.0, 7.5 and 10 μl of the prepared samples and controls were dispensed onto the discs. The plates were incubated inside the anaerobic chamber at 37° C. for 48 hours duration.
(§2) Antimicrobial studies of Vitex oil against general pathogenic aerobic bacteria such as E. coli and S. aureus were also carried out. E. coli was grown in lactose broth and S. aureus in nutrient broth. The method used was the same as it was followed for P. acnes. Clindac A (Clindamycin phosphate gel 1% w/w) was used as positive control. The clearence zone formed around the discs were measured and expressed in mm.

[3] = test system: S. aureus; test: Disc diffusion antimicrobial study against S. aureus
Method: as §1, §2

MIC ([2]; E. coli): 1.0%
MIC ([3]; S. aureus): 1.0%
SMILES: COc1ccc(-c2oc3cc(OC)c(OC)c(O)c3c(=O)c2OC)cc1OC [Artemetin]
Antibacterial activity by bioautography (in words) [1]: Clearance zone was exhibited
zone of inhibition at 0.5 % strength ([2]; Escherichia coli, concentration 0.5 % w/v): 0 mm
zone of inhibition at 1 % strength ([2]; Escherichia coli, concentration 1 % w/v): 9 mm
zone of inhibition at 5 % strength ([2]; Escherichia coli, concentration 5 % w/v): 12 mm
zone of inhibition at 0.5 % strength ([3]; Staphylococcus aureus, concentration 0.5 % w/v): 0 mm
zone of inhibition at 1 % strength ([3]; Staphylococcus aureus, concentration 1 % w/v): 8 mm
zone of inhibition at 5 % strength ([3]; Staphylococcus aureus, concentration 5 % w/v): 10 mm
